PMC11879040, “Advancing systemic toxicity risk assessment: Evaluation of a NAM-based toolbox approach” (Toxicological Sciences, 2024)
Where two headings read alike, the source gives them in different places.

Experiments:
HepaRG cells = test: High-throughput transcriptomics (HTTr, TempO-Seq), HepaRG, 24 h; format: cell-based, human; details: HepaRG; for pod_httr_bifrost PoD: HTTr BIFROST PoD; for podl_path_minbmd PoD: HTTr minimum pathway BMD(L)
Description: (§1) HepG2, HepaRG, and MCF7 cells were treated with each compound for 24 h across a dose range of 7 concentrations and lysed using TempO-Seq lysis buffer (BioSpyder Technologies, proprietary kit, see [Middleton et al. 2022] for method details). Sequencing was performed using TempO-Seq (BioClavis) version 2 of the human whole transcriptome panel and analyzed as described previously in Middleton et al.

MCF7 cells = test: High-throughput transcriptomics (HTTr, TempO-Seq), MCF7, 24 h; format: cell-based, human; details: MCF-7; for pod_httr_bifrost PoD: HTTr BIFROST PoD; for podl_path_minbmd PoD: HTTr minimum pathway BMD(L)
Description: as §1

[1] = biological target: T1, Adenosine receptor A2a, ADORA2A (h) (Homo sapiens, UniProt P29274); test: IPP ADORA2A binding (agonist radioligand); details: IPP screening at 100 uM; control NECA
T1 construct: purchased Eurofins Cerep (SafetyScreen44-based IPP panel)
T1 sequence (P29274 whole entry): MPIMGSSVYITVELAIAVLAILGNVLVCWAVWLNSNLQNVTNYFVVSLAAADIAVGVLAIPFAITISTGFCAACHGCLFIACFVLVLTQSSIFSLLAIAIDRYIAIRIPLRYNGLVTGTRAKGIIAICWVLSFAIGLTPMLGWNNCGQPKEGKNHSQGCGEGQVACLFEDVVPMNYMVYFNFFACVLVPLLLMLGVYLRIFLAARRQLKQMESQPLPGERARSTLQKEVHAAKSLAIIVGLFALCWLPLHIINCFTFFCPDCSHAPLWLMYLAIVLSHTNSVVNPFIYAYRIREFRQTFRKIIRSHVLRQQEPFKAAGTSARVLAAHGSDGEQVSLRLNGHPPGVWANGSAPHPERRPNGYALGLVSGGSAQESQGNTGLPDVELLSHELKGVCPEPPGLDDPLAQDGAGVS

rat = details: cited from earlier work; for PoD (NOAEL): rat, ref ToxRefDB/Paul-Friedman et al. (2020)/regulatory opinions
Tubulin (r) = test: IPP Tubulin binding; parameters: species or system rat; details: 100 uM; ligand/control Colchicine
[2] = tested on: Potassium Voltage-Gated Channel Kv non-selective, KCNQ1 (r); test: IPP KCNQ1 binding (antagonist radioligand); parameters: species or system rat; details: IPP screening at 100 uM; control α-dendrotoxin
[3] = human
[4] = tested on: Sodium channel protein type 5 subunit alpha (site 2), SCN5A (r); format: binding, rat; details: IPP screening at 100 uM; control veratridine
[5] = biological target: T2, Estrogen receptor, ER1 (h) (Homo sapiens, UniProt P03372); test: IPP ER1 coactivator recruitment (agonist); format: biochemical; details: 100 uM, estriol, * denotes assay interference (2-Amino-6-chloro-4-nitrophenol, HC Red 3)
T2 construct: purchased Eurofins Cerep (SafetyScreen44-based IPP panel)
T2 sequence (P03372 1-595): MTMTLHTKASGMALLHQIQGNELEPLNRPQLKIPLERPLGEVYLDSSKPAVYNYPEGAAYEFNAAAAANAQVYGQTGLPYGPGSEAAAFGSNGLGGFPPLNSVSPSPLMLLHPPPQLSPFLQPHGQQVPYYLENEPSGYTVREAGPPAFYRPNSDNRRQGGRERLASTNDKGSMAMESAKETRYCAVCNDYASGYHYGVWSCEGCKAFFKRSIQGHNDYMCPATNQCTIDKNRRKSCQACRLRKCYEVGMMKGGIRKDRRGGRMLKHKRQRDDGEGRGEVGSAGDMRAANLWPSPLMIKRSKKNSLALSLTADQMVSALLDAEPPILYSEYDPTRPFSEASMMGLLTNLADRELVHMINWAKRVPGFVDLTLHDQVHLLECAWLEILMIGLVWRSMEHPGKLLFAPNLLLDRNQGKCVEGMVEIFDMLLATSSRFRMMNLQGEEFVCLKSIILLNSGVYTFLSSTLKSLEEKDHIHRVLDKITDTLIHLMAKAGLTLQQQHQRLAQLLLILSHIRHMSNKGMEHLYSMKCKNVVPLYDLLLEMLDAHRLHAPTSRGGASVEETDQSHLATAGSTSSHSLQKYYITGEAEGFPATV

[6] = tested on: Glutamate receptor ionotropic NMDA 1 non-selective, GRIN1 (r)
[7] = tested on: Gamma-aminobutyric acid receptor subunit alpha-1 BZD site, GABRA1A (r); format: binding, rat
[8] = biological target: T2, Estrogen receptor, ER1 (h); test: IPP ER1 coactivator recruitment (antagonist); format: biochemical; details: 100 uM, estriol, * denotes assay interference (2-Amino-6-chloro-4-nitrophenol, HC Red 3)
[9] = tested on: Thyroid hormone receptor alpha, THRA (h); test: IPP THRA coactivator recruitment (agonist); format: biochemical, human; details: 100 uM; agonist; T3; * denotes assay interference (2-Amino-6-chloro-4-nitrophenol, HC Red 3)
[10] = biological target: Potassium voltage-gated channel subfamily H member 2 hERG, KCNH2 (h) (Homo sapiens, UniProt Q12809); details: human, 100 µM
Sequence of Potassium voltage-gated channel subfamily H member 2 hERG, KCNH2 (h) (Q12809 whole entry): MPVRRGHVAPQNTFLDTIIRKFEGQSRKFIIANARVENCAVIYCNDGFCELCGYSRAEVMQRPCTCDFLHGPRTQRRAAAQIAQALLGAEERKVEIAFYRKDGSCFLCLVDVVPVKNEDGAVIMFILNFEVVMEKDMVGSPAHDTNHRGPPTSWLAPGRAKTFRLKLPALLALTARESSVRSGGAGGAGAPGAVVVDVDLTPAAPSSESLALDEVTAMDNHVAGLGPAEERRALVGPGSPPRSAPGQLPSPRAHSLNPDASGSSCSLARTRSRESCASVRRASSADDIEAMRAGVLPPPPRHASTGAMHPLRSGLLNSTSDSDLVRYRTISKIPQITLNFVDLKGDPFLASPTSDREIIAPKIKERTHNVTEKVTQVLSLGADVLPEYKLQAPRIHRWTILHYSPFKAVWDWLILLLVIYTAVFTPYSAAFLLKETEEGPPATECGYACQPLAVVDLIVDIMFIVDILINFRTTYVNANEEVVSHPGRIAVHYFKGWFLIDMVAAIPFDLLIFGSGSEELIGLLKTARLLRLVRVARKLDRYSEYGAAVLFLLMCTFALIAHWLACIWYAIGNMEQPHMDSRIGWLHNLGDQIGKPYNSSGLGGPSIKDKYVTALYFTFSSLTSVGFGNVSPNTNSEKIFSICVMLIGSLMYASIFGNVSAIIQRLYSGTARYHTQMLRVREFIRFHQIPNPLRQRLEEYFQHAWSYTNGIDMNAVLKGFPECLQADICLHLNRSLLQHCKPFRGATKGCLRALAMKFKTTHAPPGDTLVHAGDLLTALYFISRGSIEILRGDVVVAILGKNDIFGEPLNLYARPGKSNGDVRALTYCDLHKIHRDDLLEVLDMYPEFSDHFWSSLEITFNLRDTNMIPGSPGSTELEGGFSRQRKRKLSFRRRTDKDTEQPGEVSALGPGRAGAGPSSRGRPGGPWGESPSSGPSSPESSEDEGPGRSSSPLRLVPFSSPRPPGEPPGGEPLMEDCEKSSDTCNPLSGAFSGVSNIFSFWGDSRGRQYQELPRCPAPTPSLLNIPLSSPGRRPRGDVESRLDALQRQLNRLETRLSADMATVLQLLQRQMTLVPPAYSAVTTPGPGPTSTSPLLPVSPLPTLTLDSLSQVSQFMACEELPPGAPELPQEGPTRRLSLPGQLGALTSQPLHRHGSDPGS

HepG2 cells [11] = test: Cell stress panel (CSP), 24 h, 8 concentrations, BIFROST global PoD; format: cell-based; details: HepG2; cell stress panel PoD
Description: Compounds were tested using the previously developed cell stress panel ([Hatherell et al. 2020]) and the expanded biomarker panel outlined in Middleton et al. HepG2 cells were treated with all compounds for 24 h across 8 concentrations prior to biomarker analysis. The same plate layout and number of replicates (3 biological and 2 technical) were used as previously for each assay within the panel.

HepG2 cells [12] = test: High-throughput transcriptomics (HTTr, TempO-Seq), HepG2, 24 h; format: cell-based, human; details: HepG2; for pod_httr_bifrost PoD: HTTr BIFROST PoD; for podl_path_minbmd PoD: HTTr minimum pathway BMD(L)
Description: as §1

[13] = tested on: 63 targets with known safety liabilities; test: In vitro pharmacological profiling (IPP) panel, screening at 10 or 100 µM and dose response, minimum IC50/AC50; format: biochemical; details: lowest AC50 across IPP panel (systemic targets); cell_type -; read-out: ipp_lowest_ac50_systemic PoD
[14] = PBK level L2; single value or median; ref [2],[4],[6],[7],[8],[10],[11],[15],[18],[27],[34]; cited from earlier work
[15] = skin penetration (PBK input); details: PBK level L2, [28] (ibuprofen)
[16] = PBK level L2; taken or scaled from references (median where several); ref [6],[7],[10],[19]; cited from earlier work
[17] = cited from earlier work
[18] = IPP screening at 100 uM, control CGS 19755
[19] = IPP screening at 100 uM, control diazepam
[20] = neurological effects, ref SCCS/1582/16
[21] = optimised based on [21] (glutaraldehyde), [23] (HCRed3)
[22] = IV bolus 391 mg, healthy 2 male 3 female, calibration, ref Pentikäinen et al. 1979
[23] = IV infusion 195 mg, 4 healthy male, validation, ref Tucker et al. 1981
[24] = Oral 391 mg (IR: Tablet), fasted, healthy 2 male 3 female, calibration, ref Pentikäinen et al. 1979
[25] = Oral 391 mg (IR: Tablet), fed, healthy 12 male 4 female, validation, ref Tucker et al. 1981

SMILES | pod_httr_bifrost PoD (HepaRG cells) | podl_path_minbmd PoD (HepaRG cells) | pod_httr_bifrost PoD (MCF7 cells) | podl_path_minbmd PoD (MCF7 cells) | Specific binding [1] | IPP screening %, Specific binding (Tubulin (r)) | Specific binding [2] | risk [3] | Specific binding [4] | IPP screening %, Coactivator recruitment [5] | Specific binding [6, 18] | Specific binding [7, 19] | IPP screening %, Coactivator recruitment [8] | IPP screening %, Coactivator recruitment [9] | IPP screening %, Specific binding [10] | pod_cell_stress PoD (HepG2 cells [11]) | pod_httr_bifrost PoD (HepG2 cells [12]) | podl_path_minbmd PoD (HepG2 cells [12]) | PoD (NOAEL) (rat; 90 day oral rat study) | AC50 [13] | other results
CCCCCCC(O)CO (stereo not drawn) [1,2-Octanediol, Octane-1,2-diol] | 103.989 µM | 259.271 µM | 48.9281 µM | 968.894 µM | 1.4% | 3.0% | -4.4% | 0 | 26.3% | 0.0% | 3.1% | 10.0% | 0.0% | 2.0% | 14.6% | 272.296 µM | 108.846 µM | 1029.23 µM | – | – | PoD (NOAEL) (rat; developmental): 150 mg/kg bw/day
Cc1c(O)cccc1O [2-methyl-1,3-benzenediol, 2-Methylbenzene-1,3-diol] | 22.9719 µM | 117.879 µM | 1.165 µM | 52.4925 µM | 8.4% | -14.0% | 27.5% | 0 | 41.6% | 13.0% | 1.8% | 6.5% | -6.0% | 2.0% | 3.3% | 8.64 µM | 0.2182 µM | 169.35 µM | 100 mg/kg bw/day | 900 nM | NOAEL (rat; 90-day study, body weight changes to rats, ref [3,4]): 100 mg/kg bw/day; NOAEL for teratogenicity and maternal toxicity (rat; ref [3,4]): 400 mg/kg bw/day
CCOc1cc(CCC(C)=O)ccc1O [Ethylzingerone, 4-(3-Ethoxy-4-hydroxyphenyl)butan-2-one] | 29.321 µM | 291.446 µM | 11.821 µM | 119.724 µM | 4.5% | 16.0% | 0.7% | 0 | 8.8% | 2.0% | -16.9% | -2.5% | -14.0% | 4.0% | 0.2% | 17.0917 µM | 11.971 µM | 445.376 µM | 100 mg/kg bw/day | 1390 nM | local NOAEL (rat; 90 day oral rat study, ref SCCS/1582/16): 300 mkd; BMD (rat; [20]): 220 mkd; BMDL (rat; [20]): 110 mkd
Nc1ccc(NCCO)c([N+](=O)[O-])c1 [HCRed3] | – | – | – | – | – | – | – | – | – | – | – | – | – | – | – | – | – | – | – | – | Fup [14]: 62.28%; Diffusivity Dermis [15, 21]: 1.00E-08 cm^2/s; Diffusivity Stratum Corneum [15, 21]: 1.00E-08 cm^2/s; Diffusivity Viable Epidermis [15, 21]: 1.00E-10 cm^2/s; Partition Coefficient Stratum Corneum/Water ([15]; optimised based on [21] (glutaraldehyde), [23] (HCRed3), no reference printed (DEET)): 1.50; Diffusivity Vehicle ([15]; optimised based on [23] (HCRed3)): 1.00E-05 cm^2/s; Intrinsic Liver Clearance [16]: 248.1 L/h
CN(C)C(=N)N=C(N)N [Metformin, N,N-Dimethyltriimidodicarbonic diamide] | 80.527 µM | 386.965 µM | 45.2765 µM | 722.808 µM | -1.4% | 14.0% | – | 1 | – | – | – | – | – | 4.0% | – | 133.042 µM | 107.11 µM | 592.816 µM | – | – | Specific binding [6]: -9.9%; Reported AUC0-t [17, 22]: 23529 ng·h/mL; Reported cmax [17, 22]: 47.318 µg/mL; Reported tmax [17, 22]: 4.2 min; Reported AUC0-t [17, 23]: 8905.5 ng·h/mL; Reported cmax [17, 23]: 8.93 µg/mL; Reported tmax [17, 23]: 0 min; Reported AUC0-t [17, 24]: 10696 ng·h/mL; Reported cmax [17, 24]: 3.1615 µg/mL; Reported tmax [17, 24]: 43.11 min; Reported AUC0-t [17, 25]: 11234 ng·h/mL; Reported cmax [17, 25]: 2 µg/mL; Reported tmax [17, 25]: 104 min; Specific binding [7]: 0.6%
